For data set [1] the following is noted: in vivo. An excerpt: Three scout scans are first acquired to position the subsequent T2 weighted images along the standard anatomical orientations in a reproducible manner. T2 weighted axial images are acquired with multislice fast spin echo (FSE) sequence using TR/TEeff=[…]/80 ms, rapid acquisition with relaxation enhancement (RARE) factor=16, FOV=26 mm, acquisition matrix=256×256, slice thickness 0.6 mm, slice gap=0.1 mm and NEX 28. The in-plane resolution is 100 μm. This sequence is repeated 4 times, for a total imaging time of 60 minutes. The first 15 minutes correspond to pre-gadolinium image, after this time period a delay of 1-2 minutes precede the ip gadolinium injection while the mouse is being imaged. The injection lasts 30 seconds. All images are acquired utilizing the same dynamic range, so there is no risk of rescale.
An intravascular contrast agent is required to generate a CBV map of the brain. Different contrast agents have been used for CBV mapping in rodents. Most studies to date have relied on intravenous injections for contrast delivery. Because IV delivery is often problematic in rodents, associated with frequent morbidity and even occasional mortality, it is not ideally suited for longitudinal studies imaging rodents repeatedly over time. […]

For data set [2] the following is noted: gas anesthesia during MRI, cited from earlier work.
Data set [3] deals with adult hippocampal neural progenitor cells. As to conditions: in vivo; mediated at least in part by NeuroD (Hao 2004; Hsieh 2004); cited from earlier work.

Where two headings read alike, the source gives them in different places.

Regarding `CNC(=O)CN(CCN(CCN(CC(=O)[O-])CC(=O)NC)CC(=O)[O-])CC(=O)[O-].[Gd+3]` [gadolinium, gadodiamide], the “IP dose above which gadolinium has toxic effects (mainly transient unsteady gait, possibly vertigo)” value in data set [1] was “Above 10 mMol”.
`FC(F)OC(Cl)C(F)(F)F` (stereo not shown) [isoflurane]: the “Cerebral hemodynamic change produced by anesthetic” value is listed as “none or minimal cerebral hemodynamic changes” in data set [2] and “minimal cerebral hemodynamic change” in data set [2] (listed as Isofluorane).
With `CCCC(CCC)C(=O)O` [VPA, 2-propylpentanoic acid], in data set [3], the “Induction of adult hippocampal neural progenitor cells to differentiate into neurons” value was “induce adult hippocampal neural progenitor cells to differentiate predominantly into neurons”.

These data come from patent US20090246145A1, “Imaging Correlates of Neurogenesis With MRI” (priority 2005, published 2009).
